Results from US10954276B2, “Enzyme-based protein separation and enrichment from soy meal, wheat meal, and other protein-rich materials derived from plant seeds, fruits and other biomass” (THE UNIVERSITY OF AKRON, priority 2012, dated 2021).
Converted amounts (≈) assume the structure as drawn.

Legend:
bacterial growth = assay: Preservatives against bacterial growth during soybean meal enzyme hydrolysis (pH profile); type: cell-based; conditions: preservative 2 g/L, 50° C., initial pH 4.8
Description: Systems that were considered in this section are identified on Table 16. All the systems contain 10 g of soybean meal. The enzyme hydrolysis was performed in 250 ml Erlenmeyer flasks which were agitated in orbital shaker at 250 rpm and at 50° C.
For control system, only water was added (no enzyme was added). For non-sterilized system, 10 g of soybean meal was mixed with 4 ml of enzyme broth and about 70 ml DI water. In the case of liquid autoclave system, 10 g of soybean meal was mixed with about 40 ml DI water and was autoclaved for 15 min. After autoclaving, an additional 30 ml of DI water (sterile) and 4 ml of enzyme broth were added. For vacuum autoclave systems, 10 g of soybean meal was autoclaved dry under vacuum cycle in the autoclave with no water for 15 and 45 min, respectively. After the autoclave cycle, 4 ml of enzyme broth and an additional 30 ml of DI water (sterile) was added. In case the sodium benzoate and sodium nitrite systems, 10 g of soybean meal was mixed with 2 g/L of either sodium benzoate or sodium nitrite, enzyme broth and DI water. There was no autoclaving or heating step used in these preservatives systems. The activity of the enzymes in the broth used for these experiments is shown on Table 17. The pH of all of the systems was adjusted to 4.8. Samples were taken periodically for the measurement of reducing sugars.

[1] = test system: bacterial growth present as spores in the soy flour; assay: Sodium benzoate concentration to inhibit bacterial growth in soy flour hydrolysis; type: cell-based; conditions: soy flour enzyme hydrolysis
Description: Sodium benzoate (Na.B) was used to inhibit the bacterial growth present as spores in the soy flour that was being used for enzyme hydrolysis enrichment of the soy proteins. Different sodium benzoate concentrations were studied to determine the best concentration of sodium benzoate to inhibit bacterial growth. It was determined that Na.B level of 2 g/L was effective. The hydrolysate byproduct of enzyme hydrolysis of the soy flour having different sugars was intended to be used for arabitol production using Debaryomyces hansenii. In order for this enzyme hydrolysate to be suitable for arabitol production, however, the sodium benzoate must be removed. Accordingly, the maximum concentration that could remain in the hydrolysate that is not inhibitory for D. hansenii growth was determined by this MIC of Na.B test with D. hansenii.

[2] = test system: another strain of Debaryomyces hansenii; conditions: cited from earlier work
Debaryomyces hansenii = assay: MIC study of benzoic acid for the growth of Debaryomyces hansenii; type: cell-based
Description: D. hansenii was inoculated first in a pre-culture medium with the following medium composition (g/L): Glucose 10, Peptone 5, Malt extract 3 and yeast extract 3. A pre-culture was performed in a 250 ml Erlenmeyer flask with 50 ml culture volume in an orbital shaker at 250 rpm and at a temperature of 30° C. After 36 hours, 5% inoculum is transferred into systems with the different benzoic acid concentrations shown in Table 11 and the medium composition shown in Table 12, each system in a 250 ml Erlenmeyer flask with a 50 ml working volume. These flasks were placed in an orbital shaker at 250 rpm and a temperature of 30° C. Samples were taken every 24 h for 3 days and the pH and cell concentrations were measured and recorded.
Cell growth was measured as optical density (OD) by measuring the absorbance of the washed cells at 610 nm with UV-vis spectrophotometer. A known amount of sample was centrifuged at 8000 rpm for 10 min and the supernatant was separated and saved for further analysis. Cell pellet was washed with DI water and centrifuge again under same conditions. Cell pellet was dispersed in water and the absorbance was measured at 610 nm.

Structure (SMILES)	bacterial growth judged from pH profile (bacterial growth)	level effective to inhibit bacterial growth [1]	MIC concentration [2]	MIC (Debaryomyces hansenii; Debaryomyces hansenii, read-out: MIC against the growth of D. hansenii)	Specific growth rate (μ), (Debaryomyces hansenii; benzoic acid 0.01 g/L)	effect on D. hansenii growth (Debaryomyces hansenii; benzoic acid 0.01 g/L)	Specific growth rate (μ), (Debaryomyces hansenii; benzoic acid 0.025 g/L)	Specific growth rate (μ), (Debaryomyces hansenii; benzoic acid 0.05 g/L)	Specific growth rate (μ), (Debaryomyces hansenii; benzoic acid 0.10 g/L)	Specific growth rate (μ), (Debaryomyces hansenii; benzoic acid 0.25 g/L)	cell growth measured as OD (Debaryomyces hansenii; benzoic acid 0.25 g/L)
O=C([O-])c1ccccc1.[Na+] [sodium benzoate, Sodium benzoate]	absence of bacterial growth	2 g/L	–	–	–	–	–	–	–	–	–
O=C(O)c1ccccc1 [Benzoic acid]	–	–	400 to 500 µg/mL	250 µg/mL (≈ 2050 µM)	0.089 h⁻¹	very little inhibitory effect	0.082 h⁻¹	0.079 h⁻¹	0.075 h⁻¹	0.022 h⁻¹	almost no cell growth
O=NO [sodium nitrite]	absence of bacterial growth	–	–	–	–	–	–	–	–	–	–
